Source: US20260365692A1, “COMPOSITIONS COMPRISING PROTEINS DISSOLVED IN FLUORINATED SOLVENTS, AND METHODS OF MAKING AND USING THE SAME” (priority 2022, published 2026)

Columns and labels:
[1] = test system: β-gal; assay: Circular dichroism with PFNA, β-gal; conditions: 0.001-1 mM PFNA
Source text: (§1) FIGS. 14A-14L depict circular dichroism spectra of Hb (FIG. 14A), GFP (FIG. 14B), BSA (FIG. 14C), β-Gal (FIG. 14D), rabbit serum IgG (FIG. 14E), transferrin (FIG. 14F), and urease (FIG. 14G) in the absence (black line) or presence (dashed lines) of PFNA. Increasing dash sequence indicated higher concentration of PFNA. FIG. 14H: Change in molar ellipticity at 216 nm (Δθ216) of PFNA-treated proteins, relative to native controls, as a function of increasing ligand concentration. FIG. 14I: Percentage change in secondary structural motifs of Hb, β-Gal and IgG between the native protein and 1 mM PFNA treated samples. β-sheet structures were further differentiated into parallel and antiparallel conformations. Hb, β-Gal and IgG were prioritized for analysis based on their significant spectral shift in the presence of 1 mM PFNA. FIGS. 14J-14L: Sensograms for BSA (FIG. 14J), β-gal (FIG. 14K), and IgG (FIG. 14L) showing relative response (R.U.) at 10, 25, 50, 75, and 100 μM.
(§2) To explore PFNA-mediated changes in protein structure, dose-response circular dichroism (CD) studies were performed (FIG. 14A-14G). […] Remarkably, these structural changes endured even at sub-stoichiometric PFNA:protein ratios (see 0.001 mM PFNA in […]; protein concentration was constant at 0.01 mM).

[2] = target: TFN (Bos taurus, UniProt Q29443); assay: 19F NMR of PFNA with TFN; assay type: binding, bovine
Chain of TFN (Q29443 20-704): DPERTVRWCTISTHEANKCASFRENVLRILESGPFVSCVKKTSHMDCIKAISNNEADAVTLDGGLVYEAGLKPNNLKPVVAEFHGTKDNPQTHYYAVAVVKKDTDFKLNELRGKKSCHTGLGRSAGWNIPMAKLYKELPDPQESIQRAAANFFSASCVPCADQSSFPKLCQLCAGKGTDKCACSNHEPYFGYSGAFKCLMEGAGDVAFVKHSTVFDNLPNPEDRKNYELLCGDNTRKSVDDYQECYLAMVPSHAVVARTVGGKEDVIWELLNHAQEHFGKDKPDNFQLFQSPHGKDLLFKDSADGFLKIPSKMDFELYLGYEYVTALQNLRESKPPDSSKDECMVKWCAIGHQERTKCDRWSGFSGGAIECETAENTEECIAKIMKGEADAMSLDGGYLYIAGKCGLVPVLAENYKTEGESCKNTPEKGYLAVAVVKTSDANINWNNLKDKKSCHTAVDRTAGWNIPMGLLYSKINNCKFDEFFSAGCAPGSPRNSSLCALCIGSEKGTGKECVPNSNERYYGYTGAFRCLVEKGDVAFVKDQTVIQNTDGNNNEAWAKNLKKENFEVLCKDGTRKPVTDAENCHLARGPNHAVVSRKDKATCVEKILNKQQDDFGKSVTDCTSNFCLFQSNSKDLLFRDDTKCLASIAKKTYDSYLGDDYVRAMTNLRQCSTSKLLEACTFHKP
Source text: This further supported the conclusion that, like TFE, adsorption of PFNA to protein surfaces aligned the fluorinated tail parallel to the solvent accessible exterior, with further stabilization via F . . . H bonding with surface N—H groups (FIG. 12, FIGS. 12A-12E, and FIG. 13). This ultimately generated the fluorine rich coating that altered water accessibility and promoted secondary structure.

[3] = test system: eGFP-PC9 lung cells; assay: Imaging of eGFP-PC9 cells with PFNA; assay type: cell-based, human; conditions: PFNA-treated cells
Experimental: FIG. 21 depicts confocal micrographs of eGFP-PC9 cells in the absence (top) and presence (bottom) of PFNA.
FIG. 22 depicts an analysis of average cellular fluorescence (in relative fluorescence units, RFU) for cells treated without/with PFNA for 1, 2 and 5 hours. Statistical significance was determined using unpaired t-test, with n.s.=not significant, * p<0.05, ** p<0.01 and *** p<0.001.
FIG. 23 depicts analysis of cellular fluorescent area (in relative area units, RAU) for cells treated without/with PFNA for 1, 2 and 5 hours. Statistical significance was determined using unpaired t-test, with n.s.=not significant, * p<0.05, ** p<0.01 and *** p<0.001.
Imaging studies were performed to interpret the effect of PFNA exposure on the transport of endogenous proteins in cells. For these experiments, stably transfected eGFP-PC9 lung cells were prepared to track the time dependent sub-cellular localization of eGFP as a model protein target (FIGS. 21, […]).

[4] = target: transferrin (Bos taurus, UniProt Q29443); assay: Circular dichroism with PFNA, transferrin; set-up: species or system bovine
Chain of transferrin (Q29443 20-704): as above
Source text: as §1, §2

[5] = test system: β-gal; assay: Surface plasmon resonance, β-Gal; assay type: binding; conditions: after reference correction
Source text: as §1
(§3) To test this assertion, PFNA binding to three exemplary proteins, BSA, β-Gal and IgG, was studied via isothermal titration calorimetry (ITC) and surface plasmon resonance (SPR) techniques. […] SPR analysis yielded similar results, with sensorgrams (FIGS. 14J-14L) that diverged from a simple 1:1 ligand-protein model. […]

[6] = test system: bovine serum albumin (BSA), β-Galactosidase (β-Gal), rabbit serum immunoglobulin (IgG), and bovine trypsin; assay: Dispersion efficiency of four model proteins in PFOc (Example 4); assay type: physicochemical; conditions: PD:protein molar ratio 1000:1
Experimental: These compounds were screened to evaluate their ability to disperse four model proteins, bovine serum albumin (BSA), β-Galactosidase (β-Gal), rabbit serum immunoglobulin (IgG), and bovine trypsin into the PFOc solvent. […] […] The samples were then briefly vortexed/sonicated then constantly mixed overnight to ensure proper fluorine dispersion. After that, samples were centrifuged at 1950 g for 5 minutes to remove non-dispersed portion, and 100 μL supernatant of dispersed protein sample was transferred into each well of 96-well plate. PFHx solvent was let evaporate at 37 °C for two hours. The remaining protein residue was redissolved in […] PBS, and an equal volume of Coomassie solution was added to the sample. In addition, protein prepared in PBS and PFHx (without PFNA) were also identically processed and included as positive and negative control. Lastly, the amount of protein was quantified by taking absorbance of converted Coomassie solution at 595 nm. Dispersion efficiency was calculated as follows:

[7] = test system: green fluorescent protein (GFP); assay: Circular dichroism with PFNA, GFP; conditions: increasing PFNA concentration
Source text: as §1, §2

[8] = test system: β-gal; assay: Isothermal titration calorimetry, β-Gal; assay type: binding
Source text: (§4) To test this assertion, PFNA binding to three exemplary proteins, BSA, β-Gal and IgG, was studied via isothermal titration calorimetry (ITC) and surface plasmon resonance (SPR) techniques. […] SPR analysis yielded similar results, with sensorgrams (FIGS. 14J-14L) that diverged from a simple 1:1 ligand-protein model. […] Similar phenomenon may explain the negative signals of the SPR data and further support the ability of PFNA to modulate the conformational plasticity of adsorbed proteins.

[9] = test system: IgG; assay: Surface plasmon resonance, IgG; assay type: binding, rabbit; conditions: after reference correction
Source text: as §1, §3

[10] = target: T1, BSA (Bos taurus, UniProt P02769); assay: Surface plasmon resonance, BSA; assay type: binding, bovine; conditions: after reference correction
T1 sequence (P02769 25-607): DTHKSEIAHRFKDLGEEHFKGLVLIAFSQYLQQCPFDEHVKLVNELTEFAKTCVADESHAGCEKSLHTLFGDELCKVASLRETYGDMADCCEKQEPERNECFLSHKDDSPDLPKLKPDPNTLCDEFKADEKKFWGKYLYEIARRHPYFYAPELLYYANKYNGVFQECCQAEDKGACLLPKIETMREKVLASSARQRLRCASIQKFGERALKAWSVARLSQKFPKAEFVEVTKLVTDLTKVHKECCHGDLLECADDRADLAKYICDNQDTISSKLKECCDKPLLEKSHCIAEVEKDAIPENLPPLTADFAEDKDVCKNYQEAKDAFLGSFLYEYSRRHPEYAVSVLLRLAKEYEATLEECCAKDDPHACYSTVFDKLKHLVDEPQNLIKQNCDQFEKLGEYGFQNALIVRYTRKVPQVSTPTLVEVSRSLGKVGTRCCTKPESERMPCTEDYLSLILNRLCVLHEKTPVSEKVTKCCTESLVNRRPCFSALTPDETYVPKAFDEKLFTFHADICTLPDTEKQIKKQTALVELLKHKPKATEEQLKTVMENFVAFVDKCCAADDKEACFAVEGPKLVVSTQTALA
Source text: as §1, §3

[11] = target: T1, BSA; assay: Isothermal titration calorimetry, BSA; assay type: binding, bovine
Source text: as §4

[12] = Pharmacokinetics of β-Gal formulations in C57BL/6 mice (Example 4); assay type: in vivo; conditions: i.v.
Source text: FIG. 55 depicts time-dependent enzymatic activity of β-Gal in plasma delivered systemically in either saline (β-GalSaline) or extracted PFOc (β-GalExt. PFOc). Data shown as average±s.d. of n=5 technical replicates. Statistical significance determined using Student's t-test and represented as n.s.=not significant, * p<0.05.
To test whether PD-7 coating and PFOc dispersion influences the pharmacokinetic properties of formulated proteins, f-Gal formulations were intravenously administered to C57BL/6 mice and monitored time dependent serum bioavailability (FIG. 55). This experiment utilized a fluorescent conversion substrate to monitor the amount of functional protein in serum, thereby investigating changes to both bioavailability and bioactivity. Due to the large solution volumes administered (150 μL, ~15% of mouse blood volume), PFOc dispersed proteins were extracted into sterile saline before injection to avoid hyponatremia. Future applications in larger mammals would allow direct injection of the fluorous dispersion, without pre-extraction, due to the increased blood volumes and bio-inert nature of most perfluorocarbon solvents. […] However, variance in the data yielded statistical significance only at the t=0 hr and t=3 hr time points.

Row | Molecule | CD structural change, β-gal [1] | 19F NMR peak change upon interaction [2] | intracellular protein localization [3] | eGFP expression ([3]; particularly 1 hour) | CD structural profile, transferrin [4] | SPR response [5] | dispersion efficiency [6] [%] | CD structural change, GFP (θ216 nm) [7] | evolution of heat (ITC) [8] | SPR response [9] | SPR response [10] | evolution of heat (ITC) [11] | serum half-life t1/2 ([12]; native β-Gal administered in saline) [min] | serum half-life t1/2 ([12]; β-Gal from PFOc formulations, extracted into saline) [min]
1 | O=C(O)C(F)(F)C(F)(F)C(F)(F)C(F)(F)C(F)(F)C(F)(F)C(F)(F)C(F)(F)F [Compound 7, perfluoronanonic acid] | marked increase in β-sheet content | broadening of PFNA's peaks | remained relatively unchanged | significant reduction | remained largely unchanged | negative responses | ≤ 50 | slight enhancement of β-sheet structure | no significant evolution of heat | negative responses | negative responses | no significant evolution of heat |  | 
2 | β-Gal: β-Galactosidase (β-Gal), dissolved in PBS/saline or dispersed in PFOc |  |  |  |  |  |  |  |  |  |  |  |  | 7.2 | 30
